Tested on: larvae of Aedes aegypti mosquitoes of the PAEA laboratory strain
Test: Larvicidal in-cup trial on larvae, protocol adapted from WHO protocols
Format: in vivo
Settings: for minimum concentration corresponding to an effective amount (100% mortality): 100% mortality of larvae at 24 h; for LD50 (SE) At 24 h / LD90 (SE) At 24 h / LD50 (SE) At 48 h / LD90 (SE) At 48 h: larval mortality, stage 3-4 larvae, PAEA strain; for LD50 (SE) At 24 h / LD90 (SE) At 24 h: 24 h after exposure; for LD50 (SE) At 48 h / LD90 (SE) At 48 h: 48 h after exposure
Text: For the purposes of the present invention, the expression “agent that is insecticidal/larvicidal with respect to a mosquito strain” is intended to mean a compound which results in the death of the mosquito larvae placed in the presence of this compound, for example in the context of an in-cup trial carried out according to the protocol recommended by the WHO (Guidelines for Laboratory and Field Testing of Mosquito Larvicides, WHO/CDS/WHOPES/GCDPP/2005.13, 2005), and for which, according to the WHO criteria for validating the tests, the mortality in the control batches is less than 20%.
The biological trials were carried out on larvae of Aedes aegypti mosquitoes of the PAEA laboratory strain sensitive to all insecticides. The protocol described hereinafter was adapted according to the WHO protocols.
This strain originating from French Polynesia has been maintained for about ten years at the insectarium of the Institut Pasteur of Guyana, in Cayenne. The mosquitoes were bred under natural conditions: temperature of 28° C.±2° C., humidity of 80%±20%, and daytime duration 12:12 h±20 min during the year. The Aedes aegypti eggs were kept dry on strips of blotting paper at the insectarium temperature. Hatching was carried out by placing these strips in water under a vacuum bell jar for at least 20 min. The larvae thus obtained were fed with yeast tablets. The larvae at growth stage 3-4 were then used for the extract and constituent activity tests. 100 larvae were transferred into plastic cups containing 99 ml of distilled water. Four cups per concentration (4×25 larvae) and at least 5 concentrations of each extract or constituent diluted in ethanol (crude extract of Sextonia rubra: 1, 2, 3, 4, 5, 7, 10, 25, 35, 50, 75, 100 μg/ml, rubrenolide: 0.1, 0.3, 0.5, 0.7, 1, 1.5, 2 μg/ml, rubrynolide: 0.1, 0.3, 0.5, 0.7, 1, 1.5, 4, 6, 8 μg/ml) were used to measure mortalities ranging from 0 to 100%. Each concentration of extract or of constituent (1 ml) was added to the cup. Controls were also carried out by adding 1 ml of ethanol to the cup. The mortality was evaluated at 24 h and 48 h after exposure of the larvae to the test product (crude extract, isolated constituent, ethanol).

Compound | minimum concentration corresponding to an effective amount (100% mortality) [µg/mL] | LD50 (SE) At 24 h | LD90 (SE) At 24 h | LD50 (SE) At 24 h (listed as rubrynolide) [µg/mL] | LD50 (SE) At 48 h | LD90 (SE) At 48 h | LD50 (SE) At 24 h (listed as spinosad) [µg/mL] | LD50 (SE) At 24 h (listed as rubrenolide) [µg/mL]
C#CCCCCCCCC[C@@H]1C[C@H](C[C@@H](O)CO)C(=O)O1 [Rubrynolide, rubrynolide] | 17 | 3.840 (0.018) μg/ml | 8.909 (0.031) μg/ml | 3.8 | 2.105 (0.023) μg/ml | 8.200 (0.043) μg/ml | – | –
spinosad [reference compound] | – | 0.387 (0.025) μg/ml | 1.118 (0.065) μg/ml | – | 0.193 (0.020) μg/ml | 0.444 (0.028) μg/ml | 0.4 | –
C=CCCCCCCCC[C@@H]1C[C@H](C[C@@H](O)CO)C(=O)O1 [Rubrenolide, rubrenolide] | 2 | 0.605 (0.023) μg/ml | 2.110 (0.041) μg/ml | – | 0.300 (0.024) μg/ml | 0.788 (0.027) μg/ml | – | 0.6
COP(=O)(OC)OC=C(Cl)Cl [Dichlorvos, dichlorvos, reference compound] | – | 0.039 (0.012) μg/ml | 0.064 (0.026) μg/ml | – | 0.029 (0.012) μg/ml | 0.049 (0.020) μg/ml | – | –

From US10834926B2, “Insecticide properties of an extract of Sextonia rubra, and the constituents thereof” (Centre National de la Recherche Scientifique, priority 2014, dated 2020)
